Source: ChEMBL document CHEMBL1806384, “Identification of benzofuran-4,5-diones as novel and selective non-hydroxamic acid, non-peptidomimetic based inhibitors of human peptide deformylase” (Bioorg Med Chem Lett, 2011)
pIC50: −log10 of the molar value. In brackets after ≈: the same amount, converted by molar mass.

Legend:
Enterococcus faecalis = experiment: Antibacterial activity against Enterococcus faecalis ATCC 29212; type: functional
Enterococcus faecium = experiment: Antibacterial activity against Enterococcus faecium ATCC 19434; type: functional
Staphylococcus aureus = experiment: Antibacterial activity against Staphylococcus aureus ATCC 29213; type: functional
Citrobacter freundii = experiment: Antibacterial activity against Citrobacter freundii ATCC 8090; type: functional
Haemophilus influenzae = experiment: Antibacterial activity against Haemophilus influenzae ATCC 49766; type: functional
Streptococcus pyogenes = experiment: Antibacterial activity against Streptococcus pyogenes ATCC 19615; type: functional
[1] = tested on: Staphylococcus epidermidis; experiment: Antibacterial activity against Staphylococcus epidermidis ATCC 12228; type: functional
Candida albicans = experiment: Antifungal activity against Candida albicans ATCC 90028; type: functional
Bacteroides fragilis = experiment: Antibacterial activity against Bacteroides fragilis ATCC 25285; type: functional
Cutibacterium acnes = experiment: Antibacterial activity against Propionibacterium acnes ATCC 11827; type: functional
Escherichia coli = experiment: Antibacterial activity against Escherichia coli ATCC 25922; type: functional
Enterobacter cloacae = experiment: Antibacterial activity against Enterobacter cloacae ATCC 13047; type: functional
Streptococcus pneumoniae = experiment: Antibacterial activity against Streptococcus pneumoniae ATCC 6301; type: functional
[2] = target: T1, Peptide deformylase, mitochondrial (Homo sapiens) (UniProt Q9HBH1); experiment: Inhibition of human peptide deformylase at 10 uM after 1 hr by fluorescence polarization based competition assay
T1 sequence (whole entry): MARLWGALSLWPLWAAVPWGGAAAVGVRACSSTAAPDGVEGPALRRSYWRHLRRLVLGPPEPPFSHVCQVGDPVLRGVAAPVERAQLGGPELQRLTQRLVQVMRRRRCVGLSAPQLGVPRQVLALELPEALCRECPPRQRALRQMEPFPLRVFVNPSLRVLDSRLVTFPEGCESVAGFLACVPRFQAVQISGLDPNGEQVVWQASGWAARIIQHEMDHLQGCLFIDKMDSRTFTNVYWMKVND

Peptide deformylase = target: T2, Peptide deformylase (Escherichia coli, UniProt Q9JN24); experiment: Inhibition of Escherichia coli peptide deformylase after 1 hr by fluorescence polarization based competition assay
T2 sequence (Q9JN24 whole entry): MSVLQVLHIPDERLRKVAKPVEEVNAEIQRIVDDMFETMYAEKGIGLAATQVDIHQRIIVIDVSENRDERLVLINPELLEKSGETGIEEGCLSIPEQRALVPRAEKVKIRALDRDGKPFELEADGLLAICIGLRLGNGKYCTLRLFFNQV

[3] = target: T3, Peptide deformylase (Escherichia coli) (UniProt Q9JN24); experiment: Inhibition of Escherichia coli peptide deformylase at 100 uM after 1 hr by fluorescence polarization based competition assay
T3 sequence (whole entry): T2 sequence (Q9JN24 whole entry)

[4] = target: T4, Interstitial collagenase (Homo sapiens) (UniProt P03956); experiment: Inhibition of human recombinant MMP1 at 100 uM after 1 hr by fluorescence polarization based competition assay
T4 sequence (whole entry): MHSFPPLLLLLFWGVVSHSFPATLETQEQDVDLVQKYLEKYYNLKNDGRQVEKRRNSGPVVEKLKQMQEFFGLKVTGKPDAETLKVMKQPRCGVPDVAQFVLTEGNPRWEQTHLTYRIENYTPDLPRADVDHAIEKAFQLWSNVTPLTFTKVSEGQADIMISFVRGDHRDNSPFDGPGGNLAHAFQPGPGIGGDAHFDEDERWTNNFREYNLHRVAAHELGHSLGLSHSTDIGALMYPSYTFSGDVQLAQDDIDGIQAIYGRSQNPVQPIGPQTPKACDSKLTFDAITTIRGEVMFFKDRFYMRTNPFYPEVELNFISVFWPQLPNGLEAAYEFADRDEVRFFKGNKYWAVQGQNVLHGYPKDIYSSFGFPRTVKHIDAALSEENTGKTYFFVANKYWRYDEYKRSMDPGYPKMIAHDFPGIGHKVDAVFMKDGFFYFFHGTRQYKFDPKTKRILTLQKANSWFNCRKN

HEK293 = experiment: Cytotoxicity against human HEK293 cells; type: cell-based
[5] = target: T5, Aminopeptidase N (Sus scrofa) (UniProt P15145); experiment: Inhibition of porcine kidney microsomal aminopeptidase N at 100 uM after 1 hr by fluorescence polarization based competition assay
T5 sequence (whole entry): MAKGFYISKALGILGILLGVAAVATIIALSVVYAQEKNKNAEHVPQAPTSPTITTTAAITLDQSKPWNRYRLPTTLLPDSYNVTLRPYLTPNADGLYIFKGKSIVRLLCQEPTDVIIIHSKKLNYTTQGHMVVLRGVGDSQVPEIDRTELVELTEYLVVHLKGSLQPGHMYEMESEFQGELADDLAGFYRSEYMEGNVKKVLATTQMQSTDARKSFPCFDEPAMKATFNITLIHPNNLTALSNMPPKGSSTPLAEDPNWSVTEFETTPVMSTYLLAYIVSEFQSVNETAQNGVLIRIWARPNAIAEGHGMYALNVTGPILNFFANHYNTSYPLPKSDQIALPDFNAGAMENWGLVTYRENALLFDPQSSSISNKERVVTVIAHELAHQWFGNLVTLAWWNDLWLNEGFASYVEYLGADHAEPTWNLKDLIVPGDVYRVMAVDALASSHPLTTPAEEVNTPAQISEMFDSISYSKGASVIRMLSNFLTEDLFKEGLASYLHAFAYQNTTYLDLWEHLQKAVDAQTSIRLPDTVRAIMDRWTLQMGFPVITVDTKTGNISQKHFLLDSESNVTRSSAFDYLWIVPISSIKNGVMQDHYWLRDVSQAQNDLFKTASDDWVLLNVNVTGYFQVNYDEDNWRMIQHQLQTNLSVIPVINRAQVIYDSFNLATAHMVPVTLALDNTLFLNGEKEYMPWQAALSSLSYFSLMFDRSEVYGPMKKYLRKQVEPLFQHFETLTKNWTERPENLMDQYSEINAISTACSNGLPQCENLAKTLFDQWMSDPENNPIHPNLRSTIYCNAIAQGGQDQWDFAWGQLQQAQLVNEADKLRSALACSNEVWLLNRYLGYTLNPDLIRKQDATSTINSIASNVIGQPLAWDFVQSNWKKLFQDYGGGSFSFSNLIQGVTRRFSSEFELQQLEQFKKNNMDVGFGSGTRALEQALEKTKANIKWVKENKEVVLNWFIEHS

[6] = target: T1, Peptide deformylase, mitochondrial (Homo sapiens); experiment: Inhibition of human peptide deformylase at 100 uM after 1 hr by fluorescence polarization based competition assay
[7] = Cytotoxicity against human Meso47 cells; type: functional, cell-based
HL-60 [8] = experiment: Cytotoxicity against human vincristine-resistant HL60 cells; type: functional, cell-based
Y79 = experiment: Cytotoxicity against human Y79 cells; type: functional, cell-based
MOLT-3 = experiment: Cytotoxicity against human MOLT3 cells; type: functional, cell-based
[9] = Cytotoxicity against human ALL3 cells; type: functional, cell-based
[10] = Cytotoxicity against human CWR22 cells; type: functional, cell-based
HL-60 [11] = experiment: Cytotoxicity against human HL60 cells; type: functional, cell-based
Jurkat = experiment: Cytotoxicity against human Jurkat cells; type: functional, cell-based
[12] = target: T6, Peptide deformylase, mitochondrial (Homo sapiens, UniProt Q9HBH1); experiment: Inhibition of human peptide deformylase after 1 hr by fluorescence polarization based competition assay
T6 sequence (Q9HBH1 whole entry): T1 sequence (whole entry)

HL-60 [13] = experiment: Antitumor activity against human HL60 cells xenografted in athymic nude mouse assessed as tumor growth delay at 15 mg/kg, ip administered 3 times a week for 2 weeks; type: functional; conditions: route intraperitoneal

Row | SMILES | MIC (Enterococcus faecalis) [µg/mL] | MIC (Enterococcus faecium) [µg/mL] | MIC (Staphylococcus aureus) [µg/mL] | MIC (Citrobacter freundii) [µg/mL] | MIC (Haemophilus influenzae) [µg/mL] | MIC (Streptococcus pyogenes) [µg/mL] | MIC [1] [µg/mL] | MIC (Candida albicans) [µg/mL] | MIC (Bacteroides fragilis) [µg/mL] | MIC (Cutibacterium acnes) [µg/mL] | inhibition [2] [%] | pIC50 (Peptide deformylase) | inhibition [3] [%] | inhibition [4] [%] | pIC50 (HEK293) | inhibition [5] [%] | inhibition [6] [%] | pIC50 (Y79) | pIC50 (MOLT-3) | pIC50 [9] | also measured
1 | O=C(O)c1cn(C2CC2)c2cc(N3CCNCC3)c(F)cc2c1=O [CIPROFLOXACIN] | 0.25 (≈ 0.754 µM) | 4 (≈ 12.1 µM) | 0.5 (≈ 1.51 µM) | ≤ 0.12 | ≤ 0.12 | 0.25 (≈ 0.754 µM) | ≤ 0.12 | > 64 | 4 (≈ 12.1 µM) | 0.25 (≈ 0.754 µM) |  |  |  |  |  |  |  |  |  |  | MIC (Escherichia coli): ≤ 0.12 µg/mL
2 | C[C@@H](O)[C@H]1C(=O)N2C(C(=O)O)=C(SCCNC=N)C[C@H]12 [IMIPENEM ANHYDROUS] | 0.5 (≈ 1.67 µM) | 2 (≈ 6.68 µM) | ≤ 0.12 | 1 (≈ 3.34 µM) | 1 (≈ 3.34 µM) | ≤ 0.12 | ≤ 0.12 | > 64 | ≤ 0.12 | ≤ 0.12 |  |  |  |  |  |  |  |  |  |  | MIC (Enterobacter cloacae): 1 µg/mL (≈ 3.34 µM); MIC (Streptococcus pneumoniae): ≤ 0.12 µg/mL; MIC (Escherichia coli): ≤ 0.12 µg/mL
3 | O=C1C(=O)c2c(C(=O)c3ccccc3)coc2C=C1Br |  |  |  |  |  |  |  |  |  |  | 97 |  |  |  |  |  |  |  |  |  | 
4 | O=C1C(=O)c2c(C(=O)c3ccccc3)coc2C(Cl)=C1Cl | > 64 | > 64 | > 64 | > 64 | > 64 | > 64 | > 64 | > 64 | > 64 | > 64 | 90 | < 4.00 | 65 | 41 | 4.00 | 101 | 100 | 4.00 | 4.51 | 4.16 | MIC (Enterobacter cloacae): > 64 µg/mL; pIC50 [7]: 4.00; pIC50 (HL-60 [8]): 4.00; pIC50 [10]: 4.14; MIC (Streptococcus pneumoniae): 4 µg/mL (≈ 12.5 µM); MIC (Escherichia coli): > 64 µg/mL
5 | Cc1ccc(C(=O)c2coc3c2C(=O)C(=O)C(Br)=C3)cc1 |  |  |  |  |  |  |  |  |  |  | 81 |  |  |  |  |  |  |  |  |  | 
6 | COc1ccc(C(=O)c2coc3c2C(=O)C(=O)C(Br)=C3)cc1 |  |  |  |  |  |  |  |  |  |  | 90 | < 4.00 | 5 | 26 | 4.27 | 22 | 100 | 4.00 | 5.40 | 4.32 | pIC50 (HL-60 [11]): 4.32; pIC50 (Jurkat): 4.70; pIC50 [12]: 4.49
7 | COc1cc(C(=O)c2coc3c2C(=O)C(=O)C(Br)=C3Br)cc(OC)c1OC |  |  |  |  |  |  |  |  |  |  |  | < 4.00 | 32 | 38 | 4.80 | 50 | 100 | 4.48 | 5.54 | 5.00 | pIC50 [7]: 4.43; pIC50 (HL-60 [8]): 4.92; pIC50 [10]: 4.68; Activity (HL-60 [13]): 40%; pIC50 (Jurkat): 5.55
8 | COc1ccc(C(=O)c2coc3c2C(=O)C(=O)C(Cl)=C3Cl)cc1 | > 64 | > 64 | > 64 | > 64 | > 64 | > 64 | > 64 | > 64 | > 64 | > 64 |  | < 4.00 | 1 | 0 | 4.52 | 50 | 88 | 4.18 | 5.39 | 4.57 | MIC (Enterobacter cloacae): > 64 µg/mL; pIC50 [7]: 4.00; pIC50 (HL-60 [8]): 4.37; pIC50 [10]: 4.30; pIC50 (HL-60 [11]): 5.00; MIC (Streptococcus pneumoniae): 16 µg/mL (≈ 45.6 µM); MIC (Escherichia coli): > 64 µg/mL; pIC50 (Jurkat): 5.21; pIC50 [12]: 4.82
9 | COc1ccc(C(=O)c2coc3c2C(=O)C(=O)C(Br)=C3Br)cc1OC |  |  |  |  |  |  |  |  |  |  |  | < 4.00 | 53 | 46 | 4.00 | 96 | 100 | 4.00 | 4.60 | 4.44 | pIC50 [7]: 4.00; pIC50 (HL-60 [8]): 4.19; pIC50 [10]: 4.00; pIC50 (HL-60 [11]): 4.38; pIC50 (Jurkat): 4.55; pIC50 [12]: 5.00
10 | CC(=O)C(C(C)=O)C1=C(Cl)C(=O)C(=O)c2c(C(=O)c3ccc(C)cc3)coc21 |  |  |  |  |  |  |  |  |  |  | 75 |  |  |  |  |  |  |  |  |  | 
